What was measured:
[1] = test system: Human RPE cell line, ARPE-19; assay: TGF-β1-induced fibrotic response in ARPE-19 (immunoblotting, immunofluorescence); type: cell-based; settings: FTOi pretreatment at indicated concentrations, TGF-β1 10 ng/ml 12 hours
Method: Cells and tissues were homogenized in RIPA buffer (R0278, Sigma) with protease and phosphatase inhibitors (A32959, Thermo Scientific). Protein concentration was determined with a Pierce BCA Protein Assay Kit (23225, Thermo Scientific). Equal quantities of protein boiled in LDS Sample Buffer (NP0007, Thermo Scientific) were resolved by Novex Tris-glycine gels (Invitrogen) and transferred onto LF PVDF membranes (1704274, Bio-Rad). The transferred membranes were blocked with Blocking Buffer (927-40000, LI-COR) and incubated with the following primary antibodies: anti-FTO pAb (AdipoGen Life Sciences, AG-25A-0089-C100, USA), anti-GAPDH mAb (Cell Signaling Technology, 97166), anti-F4/80 (Santa Cruz Biotechnology, sc-25830). The signal was visualized with species-specific secondary antibodies conjugated with IRDye and Odyssey® CLx Imaging System.

[2] = Cell viability under FTO inhibition; type: cell-based
Wild type C57BL/6J mice = assay: Serum cytokines release in the LPS model of sepsis (ELISA); type: in vivo, mouse; settings: FTOi 20 mg/kg i.p., 10 mg/kg LPS, serum at 10 hours after LPS
Method: Secreted IL-6 in the BMDMs medium or serum IL-6, TNF-alpha, and IL-1alpha were detected by ELISA (Mouse IL-1 alpha/IL-1F1 DuoSet, R&D Systems, DY400; Mouse IL-6 DuoSet, R&D Systems, DY406; Mouse TNF-alpha DuoSet, R&D Systems, DY410) according to the manufacturer's instructions.
To induced septic shock model, male or female C57BL/6 mice (6 to 10 weeks old) were primed with 10 mg/kg poly(I:C) via intraperitoneal injection. 6 hours later, primed mice were injected with 10 mg/kg LPS and monitored three time daily for a total 5 days. For FTO inhibitor treatment, Wild type C57BL/6J mice were pretreated with 20 mg/kg FB23-2 for 16 hours before sepsis induction. Next day, 20 mg/kg FB23-2 together with 10 mg/kg poly(I:C) were intraperitoneally injected, following with LPS challenge at 6 hours after poly(I:C) priming.

Cc1noc(C)c1-c1cc(Cl)c(Nc2ccccc2C(=O)NO)c(Cl)c1 [FB23-2]
Fibrotic response (αSMA, fibronectin) [1]: suppress the fibrotic response
Adverse effects on cell viability [2]: minimal adverse effects on cell viability
Serum cytokines release (IL-6, TNF-α, IL-1α) (Wild type C57BL/6J mice): impairs serum cytokines release
